Experimental data: the NIST ThermoML archive (doi:10.1016/j.fluid.2007.01.033)

How the values were obtained:
[1] = refractive index (Na D-line) (dimensionless); conditions: 298.15 K; 101.33 kPa; Liquid; Standard Abbe refractometry
[2] = xn = mol fraction of the nth substance listed; conditions: 313.15 K, Liquid

O=C=O [carbon dioxide]
313.15 K, Fluid (supercritical or subcritical phases)
Conditions	mass density [kg/m3]
1000 kPa	17.9
2000 kPa	37.1
3000 kPa	58.7
4000 kPa	83.5
5000 kPa	112.7
6000 kPa	148.8
7000 kPa	197.3
8000 kPa	276.7
9000 kPa	483.4
10000 kPa	627.4

COC(C)=O [methyl ethanoate]
Conditions	mass density [kg/m3]
298.15 K, 101.33 kPa, Liquid	927.1

Conditions	Normal boiling temperature [°C]	refractive index
Liquid	56.89	–
[1]	–	1.3594

COC(C)=O [methyl ethanoate] + O=C=O
mass density [kg/m3], [2]
Conditions	1000 kPa	2000 kPa	3000 kPa	4000 kPa	5000 kPa	6000 kPa	7000 kPa	8000 kPa	9000 kPa	10000 kPa
x2 = 0	907.9	908.9	909.7	910.9	912	913.1	914.1	915.1	916.1	917.1
x2 = 0.1	910	911.1	912.4	913.5	914.7	915.9	917	918.1	919.2	920.3
x2 = 0.2	–	913.9	915.2	916.6	917.9	919.1	920.4	921.7	922.9	924.1
x2 = 0.3	–	–	–	917.1	918.6	920.1	921.5	922.9	924.3	925.7
x2 = 0.4	–	–	–	917.4	919.2	920.9	922.7	924.3	925.9	927.5
x2 = 0.5	–	–	–	–	915.4	917.5	919.6	921.6	923.7	925.6
x2 = 0.6	–	–	–	–	–	909	912.8	915.5	918.1	920.7
x2 = 0.7	–	–	–	–	–	891.8	895.9	899.7	903.5	907
x2 = 0.8	–	–	–	–	–	–	861.5	868.2	873.8	879.5
x2 = 0.9	–	–	–	–	–	–	–	793.5	808	820.3
x2 = 0.95	–	–	–	–	–	–	–	–	734.6	759.7
